From ChEMBL document CHEMBL1201862, “PubChem BioAssay data set” (2004)
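These data come from cells grown in 96-well plates and exposed to compound for 48 hours at five concentrations. The concentration for 50% growth inhibition is given as GI50.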 Activity calls are given as the source filed them. Rule as the data show it: active = GI50 up to about 1.1 µM and inactive = higher.

What was measured:
Assay in all cases: NCI-60 cell line screen, 48 h
[1] = tested on: HL-60
[2] = tested on: SNB-75
[3] = tested on: SR
[4] = tested on: T47D
[5] = tested on: HOP-62
[6] = tested on: 786-0
[7] = tested on: HCT-15
[8] = tested on: MDA-N
[9] = tested on: OVCAR-5
[10] = tested on: A549
[11] = tested on: ACHN
[12] = tested on: NCI-H226
[13] = tested on: NCI-H23
[14] = tested on: HCC 2998
[15] = tested on: MCF7
[16] = tested on: COLO 205
[17] = tested on: OVCAR-8
[18] = tested on: TK-10
[19] = tested on: UACC-257
[20] = tested on: U-251

Structure (SMILES) | GI50 [1] | GI50 [2] | GI50 [3] | GI50 [4] | GI50 [5] | GI50 [6] | GI50 [7] [µM] | GI50 [8] | GI50 [9] | GI50 [10] | GI50 [11] | GI50 [12] | GI50 [13] | GI50 [14] | GI50 [15] | GI50 [16] | GI50 [17] | GI50 [18] | GI50 [19] | GI50 [20]
O=C(N/N=C/c1ccc(Cl)cc1)c1c(Cl)c(Cl)c(Cl)c(Cl)c1-c1nc2ccccc2[nH]1 | > 100 µM (inactive) | > 100 µM (inactive) | 59.2 µM (inactive) | 4.47 µM (inactive) | 0.0452 µM (active) | 28.6 µM (inactive) | 64.1 | 56.8 µM (inactive) | > 100 µM (inactive) | > 100 µM (inactive) | 64.6 µM (inactive) | 0.224 µM (active) | > 100 µM (inactive) | 5.5 µM (inactive) | 16.2 µM (inactive) | > 100 µM (inactive) |  |  |  | 
C#CCn1c(=O)c(C)cn(/C(=C\C(=O)OCC)C(=O)OCC)c1=O | 1.35 µM (inactive) | 17.6 µM (inactive) | 2.96 µM (inactive) | 2.65 µM (inactive) | 20.5 µM (inactive) | 2.82 µM (inactive) | 1.58 | 7.5 µM (inactive) | 7.06 µM (inactive) | 20 µM (inactive) | 1.69 µM (inactive) | 17.1 µM (inactive) | 12.6 µM (inactive) |  | 2.72 µM (inactive) | 1.17 µM (inactive) | 3.05 µM (inactive) | 1.77 µM (inactive) | 14.7 µM (inactive) | 8.11 µM (inactive)
Clc1ccc(NCc2nnc(COc3ccc(OCc4nnc(CNc5ccc(Cl)cc5)o4)c(Cl)c3)o2)cc1 | 3.52 µM (inactive) |  | 0.303 µM (active) | > 100 µM (inactive) | > 100 µM (inactive) | > 100 µM (inactive) | 43.6 | 20.4 µM (inactive) | > 100 µM (inactive) | 49 µM (inactive) | 38.1 µM (inactive) | 23.3 µM (inactive) | 44 µM (inactive) | > 100 µM (inactive) | 17.5 µM (inactive) | 10.9 µM (inactive) | 62.7 µM (inactive) | 56.9 µM (inactive) | 43.1 µM (inactive) | 39.3 µM (inactive)
CCCCc1c(O)nc(Nc2nc3ccccc3[nH]2)[nH]c1=O | > 100 µM (inactive) | > 100 µM (inactive) | > 100 µM (inactive) | > 100 µM (inactive) | > 100 µM (inactive) | > 100 µM (inactive) | > 100 | > 100 µM (inactive) | > 100 µM (inactive) | > 100 µM (inactive) | > 100 µM (inactive) | 67 µM (inactive) | > 100 µM (inactive) |  | > 100 µM (inactive) | > 100 µM (inactive) | > 100 µM (inactive) | > 100 µM (inactive) | > 100 µM (inactive) | 69.7 µM (inactive)
COc1ccc(/N=C2\C(=O)Nc3ccc(Br)cc32)cc1 | 15.6 µM (inactive) |  | 3.58 µM (inactive) | 18.3 µM (inactive) | 29.2 µM (inactive) | 16.3 µM (inactive) | 14.3 | 13.9 µM (inactive) | 23.2 µM (inactive) | 24.2 µM (inactive) | 15.4 µM (inactive) | 16.2 µM (inactive) | 18.2 µM (inactive) | 19.2 µM (inactive) | 14.6 µM (inactive) | 15.7 µM (inactive) | 14.9 µM (inactive) | 23.6 µM (inactive) | 20.7 µM (inactive) | 22.9 µM (inactive)
CC(=O)OCCn1c(Cc2ccc([N+](=O)[O-])cc2)nn(C(C)=O)c1=O | > 100 µM (inactive) |  | > 100 µM (inactive) | > 100 µM (inactive) |  | > 100 µM (inactive) | > 100 | > 100 µM (inactive) | > 100 µM (inactive) | > 100 µM (inactive) | > 100 µM (inactive) | > 100 µM (inactive) | > 100 µM (inactive) | > 100 µM (inactive) | > 100 µM (inactive) | > 100 µM (inactive) | > 100 µM (inactive) | > 100 µM (inactive) | > 100 µM (inactive) | > 100 µM (inactive)
Cc1cc(S(=O)(=O)N/C(=N/N)NCCc2ccccc2)c(S)cc1Cl | 44.1 µM (inactive) | 25.6 µM (inactive) | 29.9 µM (inactive) | 18.1 µM (inactive) | > 10 µM (inactive) | 30.5 µM (inactive) | 19.2 | > 10 µM (inactive) | 19.5 µM (inactive) | 36.1 µM (inactive) |  | 25.6 µM (inactive) |  | 23.2 µM (inactive) | 32.4 µM (inactive) | 49.3 µM (inactive) | 18.9 µM (inactive) | 39.4 µM (inactive) | 44.4 µM (inactive) | 16.6 µM (inactive)
Cn1cco/c1=N/c1ccc(Cl)c(Cl)c1 |  | > 10 µM (inactive) | > 10 µM (inactive) | > 10 µM (inactive) | > 10 µM (inactive) | > 10 µM (inactive) | > 10 | > 10 µM (inactive) | > 10 µM (inactive) | > 10 µM (inactive) | > 10 µM (inactive) | > 10 µM (inactive) | > 10 µM (inactive) | > 10 µM (inactive) | > 10 µM (inactive) | > 10 µM (inactive) | > 10 µM (inactive) | > 10 µM (inactive) | > 10 µM (inactive) | > 10 µM (inactive)
